# Data published in patent US20130142868A1 (priority 2010, published 2013).
# Read-outs that look alike come from different tables or passages of the source.
# Experiments:
# [1] = system: A549 human lung cancer cells; test: Alamar Blue cell viability assay, A549; type: cell-based; details: 72 h, 3 days incubation
# Procedure: HUVEC, LLC-PK1, and A549 lung cancer cells were purchased from ATCC. LLC-PK1 cells were cultured in DMEM supplemented with 10% FBS and antibiotics (100 U/mL penicillin G and 0.1 mg/mL streptomycin). HUVEC cells were cultured in F12-K media supplemented with 100 ug/ml endothelial cell growth supplement (BD Biosciences, Franklin Lakes, N.J.), 10% FBS, and antibiotics. A549 human lung cancer cells were cultured in F12-K media with 10% FBS and antibiotics. All cells were grown at 37° C. in a 5% CO2/95% air humidified atmosphere.
# Cell viability experiments were performed using the Alamar Blue dye reduction assay (Invitrogen, Carlsbad, Calif.). The experimental cell lines were plated at 1.0×10^4 cells/well in 96-well plates in recommended media and allowed to adhere overnight. The next day, cells were incubated with liposomes or free CCNU, with drug concentrations from 2.5 to 100 μM. Cells were also incubated with empty RGD-expressed and non-targeted liposomes. The control cells were only incubated in the recommended media. All experiments were performed in quadruplicate. Incubations were allowed to carry out for 3 days. […] Next, the wells were analyzed with a fluorescence plate reader with absorption and emission of 485/535 nm. All cell viability results are expressed as a percentage of viable cells compared to control cells.
# [2] = rat, in vivo
# [3] = in vivo; cited from earlier work
# [4] = system: rats; details: rat, in vivo
structure (smiles),measurement,setting,value
"O=NN(CCCl)C(=O)NC1CCCCC1 [Free Drug, 1-(2-chloroethyl)-3-cyclohexyl-1-nitroso-urea]",IC50,"[1]; after aerosolization, read-out: IC50 values, post-aerosolization",70.5 ± 2.97 µM
same,IC50,"[1]; before aerosolization, read-out: IC50 values, pre-aerosolization",68.7 ± 2.48 µM
OC[C@@H](O)[C@@H](O)[C@H](O)[C@H](O)CO [mannitol],concentration at olfactory bulbs,"[2]; Sprague-Dawley, 30 min",about 2 nmol/g
same,"concentration in the brain's cortex, brain stem and spine","[2]; Sprague-Dawley, 30 min",0.2 to 0.4 nmol/g
same,"cortex concentration, increase POD compared to IV","[2]; Sprague-Dawley, 30 min",8.69 fold
same,"cortex concentration, increase POD compared to nose drops","[2]; Sprague-Dawley, 30 min",11.6 fold
same,"olfactory bulb concentration, increase POD compared to IV","[2]; Sprague-Dawley, 30 min",53.1 fold
same,"olfactory bulb concentration, increase POD compared to nose drops","[2]; Sprague-Dawley, 30 min",25.6 fold
same,"olfactory bulb concentration, increase POD compared to IV","[2]; Sprague-Dawley, 150 min",40.0 fold
same,"olfactory bulb concentration, increase POD compared to nose drops","[2]; Sprague-Dawley, 150 min",22.1 fold
same,"concentration in the brain's cortex, brain stem and spine","[2]; Sprague-Dawley, iv, 30 min",less than 0.02 nmol/g
same,"blood normalized olfactory bulb concentration, POD compared to nose drops",[2]; 30 min,18.6 fold
same,"brain-to-blood ratio (average of all brain tissues), increase POD compared to nose drops",[2]; 30 min,3.4 fold
same,half life,[3],1.67 h
CN1CC[C@]23c4c5ccc(O)c4O[C@H]2[C@@H](O)C=C[C@H]3[C@H]1C5 [morphine],DTP % after POD administration,[4],38-55%
same,"DTP % after nose drops, depending on the dose",[4],0-10%
Cc1c(O)cccc1C(=O)N[C@@H](CSc1ccccc1)[C@H](O)CN1C[C@H]2CCCC[C@H]2C[C@H]1C(=O)NC(C)(C)C [nelfinavir],"blood concentration, nose drop administration relative to POD administration","[2]; Sprague-Dawley, 30 min",3.2 times higher
same,"cortex concentration, increase POD compared to nose drops","[2]; Sprague-Dawley, 30 min",4.05 fold
same,"olfactory bulb concentration, increase POD compared to nose drops","[2]; Sprague-Dawley, 30 min",1.91 fold
same,"blood normalized olfactory bulb concentration, POD compared to nose drops",[2]; 30 min,3.6 fold
same,"brain-to-blood ratio (average of all brain tissues), increase POD compared to nose drops",[2]; 30 min,2.1 fold
same,"cortex concentration, increase POD compared to nose drops",[2]; 30 min,4.0 fold
same,"olfactory bulb concentration, increase POD compared to nose drops",[2]; 30 min,1.4 fold
